Laboratory results: ChEMBL document CHEMBL1201862, “PubChem BioAssay data set” (2004)
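Method: 48-hour compound exposure of cells in 96-well plates, five concentrations, linear interpolation of endpoints. The concentration for 50% growth inhibition is given as GI50.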 The source made the active and inactive calls. No stated cut-off is given here; in the data, active = GI50 up to about 1.1 µM and inactive = higher.

What was measured:
Assay in all cases: growth of human tumour cells (NCI), 48 h
[1] = system: ACHN
[2] = system: BT-549
[3] = system: HCC 2998
[4] = system: HL-60
[5] = system: IGROV-1
[6] = system: KM12
[7] = system: LOX IMVI
[8] = system: MCF7
[9] = system: NCI-H23
[10] = system: NCI-H460
[11] = system: NCI/ADR-RES
[12] = system: SN12C
[13] = system: SNB-19
[14] = system: SNB-75
[15] = system: T47D
[16] = system: U-251
[17] = system: UACC-257
[18] = system: UO-31
[19] = system: CCRF-CEM
[20] = system: TK-10

Row | SMILES | GI50 [1] | GI50 [2] | GI50 [3] | GI50 [4] | GI50 [5] | GI50 [6] | GI50 [7] | GI50 [8] | GI50 [9] | GI50 [10] | GI50 [11] | GI50 [12] | GI50 [13] | GI50 [14] | GI50 [15] | GI50 [16] | GI50 [17] | GI50 [18] | GI50 [19] | GI50 [20]
1 | CC(=O)c1c2n(n(-c3ccccc3)c1=O)C(=O)c1nccnc1-2 | > 100 µM (inactive) | > 100 µM (inactive) | > 100 µM (inactive) | > 100 µM (inactive) | > 100 µM (inactive) | > 100 µM (inactive) | > 100 µM (inactive) | > 100 µM (inactive) | > 100 µM (inactive) | > 100 µM (inactive) | > 100 µM (inactive) | > 100 µM (inactive) | > 100 µM (inactive) | 54.1 µM (inactive) | > 100 µM (inactive) | > 100 µM (inactive) | > 100 µM (inactive) | > 100 µM (inactive) | – | –
2 | O=C1N=C2SC(=S)N=C(S)N2NC12c1ccccc1-c1ccccc12 | – | > 10 µM (inactive) | > 10 µM (inactive) | > 10 µM (inactive) | > 10 µM (inactive) | > 10 µM (inactive) | > 10 µM (inactive) | 6.81 µM (inactive) | 9.4 µM (inactive) | 0.736 µM (active) | 3.61 µM (inactive) | > 10 µM (inactive) | – | > 10 µM (inactive) | 1.38 µM (inactive) | > 10 µM (inactive) | 5.68 µM (inactive) | 6.28 µM (inactive) | 7.78 µM (inactive) | > 10 µM (inactive)
3 | Cc1cc(C)nc(NC(=O)c2ccc(Br)s2)c1 | > 100 µM (inactive) | > 100 µM (inactive) | > 100 µM (inactive) | – | > 100 µM (inactive) | > 100 µM (inactive) | 35.3 µM (inactive) | 28 µM (inactive) | 77.6 µM (inactive) | > 100 µM (inactive) | > 100 µM (inactive) | > 100 µM (inactive) | > 100 µM (inactive) | 47.8 µM (inactive) | 31.9 µM (inactive) | > 100 µM (inactive) | > 100 µM (inactive) | 25.6 µM (inactive) | 3.37 µM (inactive) | > 100 µM (inactive)
4 | O=C(Cc1ccccc1)NNc1nc(NNC(=O)c2ccncc2)nc(Nc2ccc(Cl)cc2)n1 | – | > 10 µM (inactive) | > 10 µM (inactive) | > 10 µM (inactive) | > 10 µM (inactive) | > 10 µM (inactive) | > 10 µM (inactive) | > 10 µM (inactive) | > 10 µM (inactive) | – | 5.85 µM (inactive) | > 10 µM (inactive) | – | > 10 µM (inactive) | > 10 µM (inactive) | > 10 µM (inactive) | > 10 µM (inactive) | > 10 µM (inactive) | > 10 µM (inactive) | > 10 µM (inactive)
5 | O=c1[nH]c(N/N=C\C(O)C(O)C(O)C(O)CO)nc2ccccc12 (stereo not given) | > 100 µM (inactive) | > 100 µM (inactive) | – | > 100 µM (inactive) | > 100 µM (inactive) | > 100 µM (inactive) | > 100 µM (inactive) | > 100 µM (inactive) | > 100 µM (inactive) | > 100 µM (inactive) | > 100 µM (inactive) | > 100 µM (inactive) | > 100 µM (inactive) | > 100 µM (inactive) | > 100 µM (inactive) | > 100 µM (inactive) | > 100 µM (inactive) | > 100 µM (inactive) | > 100 µM (inactive) | > 100 µM (inactive)
6 | CSC1(CC(=O)N2CCCCC2)C(=O)Nc2ccccc21 (stereo not given) | > 100 µM (inactive) | > 100 µM (inactive) | > 100 µM (inactive) | – | > 100 µM (inactive) | > 100 µM (inactive) | > 100 µM (inactive) | > 100 µM (inactive) | > 100 µM (inactive) | > 100 µM (inactive) | > 100 µM (inactive) | – | > 100 µM (inactive) | > 100 µM (inactive) | > 100 µM (inactive) | > 100 µM (inactive) | > 100 µM (inactive) | > 100 µM (inactive) | – | > 100 µM (inactive)
7 | CCn1c(-c2ccc(OC(C)=O)cc2)c(C)c2cc(OC(C)=O)ccc21 [ZINDOXIFENE] | 19.4 µM (inactive) | 29.4 µM (inactive) | – | 11 µM (inactive) | 24 µM (inactive) | 12.9 µM (inactive) | 11.9 µM (inactive) | 18 µM (inactive) | 24.1 µM (inactive) | 6.04 µM (inactive) | 24.9 µM (inactive) | 27.5 µM (inactive) | 31 µM (inactive) | 16.5 µM (inactive) | 19.4 µM (inactive) | 11.3 µM (inactive) | 27 µM (inactive) | 20.7 µM (inactive) | 23.3 µM (inactive) | 20 µM (inactive)
8 | C1CCN(CCC2CCCCN2)CC1 (stereo not given) | > 100 µM (inactive) | > 100 µM (inactive) | – | > 100 µM (inactive) | > 100 µM (inactive) | > 100 µM (inactive) | > 100 µM (inactive) | > 100 µM (inactive) | > 100 µM (inactive) | 55 µM (inactive) | > 100 µM (inactive) | > 100 µM (inactive) | > 100 µM (inactive) | > 100 µM (inactive) | > 100 µM (inactive) | > 100 µM (inactive) | > 100 µM (inactive) | – | > 100 µM (inactive) | > 100 µM (inactive)
9 | CC1(C)CC23CC(C)(C)c4cccc(c42)OCc2ccc4ccc5ccc(nc5c4n2)COc2cccc1c23 | > 50 µM (inactive) | > 50 µM (inactive) | > 50 µM (inactive) | > 50 µM (inactive) | > 50 µM (inactive) | > 50 µM (inactive) | > 50 µM (inactive) | > 50 µM (inactive) | – | > 50 µM (inactive) | > 50 µM (inactive) | > 50 µM (inactive) | > 5 µM (inactive) | > 50 µM (inactive) | > 50 µM (inactive) | > 50 µM (inactive) | > 50 µM (inactive) | > 50 µM (inactive) | – | > 50 µM (inactive)
10 | Nc1ccc(Oc2ccc(C34CC5CC6C3CC3CC4C(C5)C6(c4ccc(Oc5ccc(N)c(O)c5)cc4)C3)cc2)cc1O | 2.44 µM (inactive) | 1.15 µM (inactive) | 1.87 µM (inactive) | 0.542 µM (active) | 5.14 µM (inactive) | 3.69 µM (inactive) | 2.87 µM (inactive) | 4.55 µM (inactive) | 3.55 µM (inactive) | 3.56 µM (inactive) | 3.1 µM (inactive) | 1.72 µM (inactive) | 3.57 µM (inactive) | – | 0.652 µM (active) | 2.58 µM (inactive) | 3.64 µM (inactive) | 2.42 µM (inactive) | 3.33 µM (inactive) | 4.92 µM (inactive)
11 | CN(CCc1ccc(N)cc1)[C@H]1CCCC[C@H]1N1CCCC1 | > 100 µM (inactive) | > 100 µM (inactive) | 51.9 µM (inactive) | > 100 µM (inactive) | > 100 µM (inactive) | > 100 µM (inactive) | > 100 µM (inactive) | > 100 µM (inactive) | > 100 µM (inactive) | > 100 µM (inactive) | > 100 µM (inactive) | > 100 µM (inactive) | > 100 µM (inactive) | > 100 µM (inactive) | > 100 µM (inactive) | > 100 µM (inactive) | > 100 µM (inactive) | > 100 µM (inactive) | – | > 100 µM (inactive)
12 | CC1(C)C2CC1C(/C=N\OCC(=O)O)=CC2=O (stereo not given) | > 100 µM (inactive) | > 100 µM (inactive) | > 100 µM (inactive) | > 100 µM (inactive) | > 100 µM (inactive) | > 100 µM (inactive) | > 100 µM (inactive) | > 100 µM (inactive) | > 100 µM (inactive) | > 100 µM (inactive) | > 100 µM (inactive) | > 100 µM (inactive) | > 100 µM (inactive) | – | > 100 µM (inactive) | > 100 µM (inactive) | > 100 µM (inactive) | > 100 µM (inactive) | > 100 µM (inactive) | > 100 µM (inactive)
13 | CN(/N=C/c1ccc(Cl)c(Cl)c1)C1=NCCN1 | 31.9 µM (inactive) | 28.3 µM (inactive) | 30.3 µM (inactive) | – | 27.1 µM (inactive) | 28.1 µM (inactive) | 12.4 µM (inactive) | 22.9 µM (inactive) | 56 µM (inactive) | 40.8 µM (inactive) | 37.6 µM (inactive) | 29.9 µM (inactive) | 55.8 µM (inactive) | 15.8 µM (inactive) | 23 µM (inactive) | 23.2 µM (inactive) | 20.1 µM (inactive) | – | 16.7 µM (inactive) | 46.2 µM (inactive)
14 | COc1ccc(C(=O)/C=C/c2ccc(OCC(=N)N)cc2)cc1 | 17.6 µM (inactive) | 17.9 µM (inactive) | 16.6 µM (inactive) | – | 18.2 µM (inactive) | 12.6 µM (inactive) | – | 13.2 µM (inactive) | 18.7 µM (inactive) | > 10 µM (inactive) | 28.2 µM (inactive) | 13.5 µM (inactive) | 15.8 µM (inactive) | 5.73 µM (inactive) | 10.7 µM (inactive) | 13.9 µM (inactive) | 18.5 µM (inactive) | 19.8 µM (inactive) | 4.06 µM (inactive) | 21.4 µM (inactive)
15 | COc1ccc(-n2c3c(c4c(CN(C)C)c(O)ccc42)C(=O)c2ccccc2C3=O)cc1 | 2.17 µM (inactive) | 13.6 µM (inactive) | 2.77 µM (inactive) | 3.13 µM (inactive) | 3.99 µM (inactive) | 3.2 µM (inactive) | 2.49 µM (inactive) | 7.18 µM (inactive) | 12.7 µM (inactive) | 4.24 µM (inactive) | 5.73 µM (inactive) | 2.82 µM (inactive) | 4.4 µM (inactive) | – | 2.67 µM (inactive) | 2.94 µM (inactive) | 18.8 µM (inactive) | 1.96 µM (inactive) | 2.99 µM (inactive) | 17.6 µM (inactive)
